Source: paper PMC4171110, “BdcA, a Protein Important for Escherichia coli Biofilm Dispersal, Is a Short-Chain Dehydrogenase/Reductase that Binds Specifically to NADPH” (PLoS ONE, 2014)

T1: BdcA (Escherichia coli, UniProt P39333)
T1 construct: full-length; N-terminal Thio6-His6 tag removed with TEV protease; expressed in E. coli BL21-Gold (DE3)
T1 sequence (P39333 1-237): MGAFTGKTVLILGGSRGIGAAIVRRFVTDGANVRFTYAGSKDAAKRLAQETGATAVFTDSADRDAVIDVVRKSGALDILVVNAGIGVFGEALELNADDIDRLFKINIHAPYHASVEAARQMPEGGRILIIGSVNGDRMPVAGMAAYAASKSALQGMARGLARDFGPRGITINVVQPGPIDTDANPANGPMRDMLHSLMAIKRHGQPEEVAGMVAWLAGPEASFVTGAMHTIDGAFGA

B1: BdcA (enzyme, E. coli, UniProt P39333 1-237, looked up)
chain: T1 sequence (P39333 1-237)
notes: BdcA (YjgI), short-chain dehydrogenase/reductase of E. coli, full-length bdcA gene in the RP1B vector; monomer MW 24.9 kDa as printed; Tag removed with TEV protease; Homodimer in the crystal and in solution; also called YjgI; BcdA; source: E. coli BL21-Gold (DE3), purified (HisTrap, TEV cleavage, Ni-NTA, SEC); not shown: Thio6-His6, N-terminal, cleaved

Tests used:
BdcA [1] = target: T1, BdcA; experiment: differential scanning fluorimetry (SYPRO Orange); type: binding; settings: 20 mM HEPES pH 7.5; 8 µM protein, 160 µM ligand
Source text: differential scanning fluorimetry (SYPRO Orange) on BdcA

BdcA [2] = target: T1, BdcA; experiment: isothermal titration calorimetry; type: binding
Source text: isothermal titration calorimetry on BdcA

[3] = target: the molecule itself; experiment: SEC; Superdex 75 26/60, 20 mM Tris pH 7.5, 100 mM NaCl, 0.5 mM TCEP; elution volume compared with MW standards (158, 44, 17 kDa)

Molecule | ΔTm (°C) (BdcA [1]) | Kd (BdcA [2]) [µM] | stoichiometry N [3]
NC(=O)c1ccc[n+]([C@@H]2O[C@H](COP(=O)(O)OP(=O)(O)OC[C@H]3O[C@@H](n4cnc5c(N)ncnc54)[C@H](OP(=O)(O)O)[C@@H]3O)[C@@H](O)[C@H]2O)c1 [NADP] | 1.0 |  | 
NC(=O)C1=CN([C@@H]2O[C@H](COP(=O)(O)OP(=O)(O)OC[C@H]3O[C@@H](n4cnc5c(N)ncnc54)[C@H](OP(=O)(O)O)[C@@H]3O)[C@@H](O)[C@H]2O)C=CC1 [NADPH] | 3.1 | 25.9 ± 4.1 | 
B1 |  |  | 2
